{"source": "patent US5013734A", "about": "“Novel esters of phenylalkanoic acid” (Ono Pharmaceutical Co., Ltd., priority 1989, dated 1991)", "key": {"β1 -receptor": {"tested_on": "β1 -receptor", "assay": "β-blocking activity in vivo: inhibition of isoproterenol-induced tachycardia in anesthetized dogs", "settings": "for Inhibitory effect after administration of compounds of the present invention (inhibition of isoproterenol-induced tachycardia), 10 min: 10 min (during infusion); for Inhibitory effect after administration of compounds of the present invention (inhibition of isoproterenol-induced tachycardia), 10 min / Inhibitory effect after administration of compounds of the present invention (inhibition of isoproterenol-induced tachycardia), 20 min / Inhibitory effect after administration of compounds of the present invention (inhibition of isoproterenol-induced tachycardia), 30 min / Inhibitory effect after administration of compounds of the present invention (inhibition of isoproterenol-induced tachycardia), 35 min / Inhibitory effect after administration of compounds of the present invention (inhibition of isoproterenol-induced tachycardia), 40 min / Inhibitory effect after administration of compounds of the present invention (inhibition of isoproterenol-induced tachycardia), 50 min / Inhibitory effect after administration of compounds of the present invention (inhibition of isoproterenol-induced tachycardia), 60 min: 10 μg/kg/min iv infusion for 30 minutes; for Inhibitory effect after administration of compounds of the present invention (inhibition of isoproterenol-induced tachycardia), 20 min: 20 min (during infusion); for Inhibitory effect after administration of compounds of the present invention (inhibition of isoproterenol-induced tachycardia), 30 min: 30 min (end of infusion); for Inhibitory effect after administration of compounds of the present invention (inhibition of isoproterenol-induced tachycardia), 35 min: 35 min (after infusion); for Inhibitory effect after administration of compounds of the present invention (inhibition of isoproterenol-induced tachycardia), 40 min: 40 min (after infusion); for Inhibitory effect after administration of compounds of the present invention (inhibition of isoproterenol-induced tachycardia), 50 min: 50 min (after infusion); for Inhibitory effect after administration of compounds of the present invention (inhibition of isoproterenol-induced tachycardia), 60 min: 60 min (after infusion); for Duration of action: time required to decrease the inhibition percent 30 minutes after administration to half, 10 μg/kg/min iv infusion", "protocol": "β-blocking activity of the compounds of the present invention in vivo\nDogs were anesthetized with sodium barbital (300 mg/kg, ip). A femoral artery and both femoral veins were cannulated. Blood pressure was measured with a pressure transducer. Heart rate was measured from the blood pressure signal using a cardiotachometer. The β-blocking activity was assessed by the inhibition of isoproterenol-induced tachycardia. Isoproterenol was administered intravenously (0.1~0.3 μg/kg) at 10 minutes intervals. When a regular tachycardia induced by isoproterenol was given, the compound of the present invention was administered (10 μg/kg/min, iv infusion) for 30 minutes. Isoproterenol was given repeatedly during and following infusion of a test compound. The inhibitory effects of the compounds of the present invention on tachycardia were calculated.\nInhibition (%)=((ΔRO-ΔRa)/ΔRO)×100\nΔRO: the increment of heart rate by isoproterenol before infusion of the compound of the present invention\nΔRa: the increment of heart rate by isoproterenol during and after infusion of the compound of the present invention"}, "β-receptor (trachea)": {"biological_target": "T1, β-receptor (trachea) (Cavia porcellus, UniProt Q8K4Z4)", "T1 construct": "Trachea was cut into zigzag strip and connected to a force transducer; from tissue; host or cells: isolated guinea pig tracheal zigzag strip", "T1 sequence (Q8K4Z4 whole entry)": "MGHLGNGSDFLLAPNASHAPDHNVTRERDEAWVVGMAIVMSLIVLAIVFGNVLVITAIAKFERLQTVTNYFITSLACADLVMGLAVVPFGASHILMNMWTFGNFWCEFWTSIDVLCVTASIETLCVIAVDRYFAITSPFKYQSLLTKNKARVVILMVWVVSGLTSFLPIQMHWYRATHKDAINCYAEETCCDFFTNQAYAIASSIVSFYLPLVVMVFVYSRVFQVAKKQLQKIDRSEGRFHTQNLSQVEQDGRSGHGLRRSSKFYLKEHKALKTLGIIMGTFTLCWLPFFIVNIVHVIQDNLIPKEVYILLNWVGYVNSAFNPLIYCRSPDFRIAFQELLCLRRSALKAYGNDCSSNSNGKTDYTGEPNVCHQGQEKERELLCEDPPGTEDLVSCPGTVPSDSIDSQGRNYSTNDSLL", "assay": "Cardio selectivity of β-receptor blocking effect in vitro: isolated trachea, isoproterenol concentration-response", "type": "cell-based, guinea pig", "settings": "against isoproterenol (10^-10 M to 10^-4 M), read-out: pA2 value trachea (converted)", "from_the_text": "Concentration-response curves to isoproterenol were then obtained."}, "[1]": {"assay": "acute toxicity (LD50), intravenous, mice", "settings": "mouse, in vivo; intravenous administration in mice", "from_the_text": "On the other hand, it was confirmed that the toxicity of the compounds of the present invention was very low. […] Therefore, the compounds of the present invention may be considered to be sufficiently safe and suitable for pharmaceutical use."}}, "note": "Counter-ions that a name gives are not always drawn.", "data": [{"molecule": "O=C(CCc1ccc(OCC(O)CNCCNC(=O)N2CCOCC2)cc1)OCC1COC2(CCCC2)O1", "note": "(stereo not shown) [3 (c), (1,4-dioxaspiro[4,4]-nonan-2-yl)methyl 3-[4-[2-hydroxy-3-(2-morpholinocarbonylaminoethyl)aminopropoxy]phenyl]-ropionate 1/2 oxalate]", "values": [{"measurement": "Inhibitory effect after administration of compounds of the present invention (inhibition of isoproterenol-induced tachycardia), 10 min", "setting": "β1 -receptor", "value": 38.3, "unit": "%"}, {"measurement": "Inhibitory effect after administration of compounds of the present invention (inhibition of isoproterenol-induced tachycardia), 20 min", "setting": "β1 -receptor", "value": 46.9, "unit": "%"}, {"measurement": "Inhibitory effect after administration of compounds of the present invention (inhibition of isoproterenol-induced tachycardia), 30 min", "setting": "β1 -receptor", "value": 40.4, "unit": "%"}, {"measurement": "Inhibitory effect after administration of compounds of the present invention (inhibition of isoproterenol-induced tachycardia), 35 min", "setting": "β1 -receptor", "value": 37.0, "unit": "%"}, {"measurement": "Inhibitory effect after administration of compounds of the present invention (inhibition of isoproterenol-induced tachycardia), 40 min", "setting": "β1 -receptor", "value": 20.1, "unit": "%"}, {"measurement": "Inhibitory effect after administration of compounds of the present invention (inhibition of isoproterenol-induced tachycardia), 50 min", "setting": "β1 -receptor", "value": -2.6, "unit": "%"}, {"measurement": "Inhibitory effect after administration of compounds of the present invention (inhibition of isoproterenol-induced tachycardia), 60 min", "setting": "β1 -receptor", "value": -1.3, "unit": "%"}, {"measurement": "Duration of action", "setting": "β1 -receptor", "value": 10, "unit": "min"}]}, {"molecule": "CC1(C)OC[C@@H](COC(=O)CCc2ccc(OC[C@@H](O)CNCCNC(=O)N3CCOCC3)cc2)O1", "note": "[2 (b), (2,2-dimethyl-1,3-dioxolan-4S-yl)methyl 3-[4-[2S-hydroxy-3-(2-morpholinocarbonylaminoethyl)aminopropoxy]phenyl]propionate 1/2 oxalate]", "values": [{"measurement": "Kb", "setting": "β-receptor (trachea)", "value": 66.1, "unit": "µM"}, {"measurement": "LD50", "setting": "[1]", "value": 290, "unit": "mg/kg"}]}, {"molecule": "CC1(C)OCC(COC(=O)CCc2ccc(OC[C@@H](O)CNCCNC(=O)N3CCOCC3)c(F)c2)O1", "note": "(stereo partly drawn) [3 (e), (2,2-dimethyl-1,3-dioxolan-4-yl)methyl 3-[3-fluoro-4-[2S-hydroxy-3-(2-morpholinocarbonylaminoethyl)aminopropoxy]phenyl]propionate 1/2 oxalate]", "values": [{"measurement": "Inhibitory effect after administration of compounds of the present invention (inhibition of isoproterenol-induced tachycardia), 10 min", "setting": "β1 -receptor", "value": 49.6, "unit": "%"}, {"measurement": "Inhibitory effect after administration of compounds of the present invention (inhibition of isoproterenol-induced tachycardia), 20 min", "setting": "β1 -receptor", "value": 58.5, "unit": "%"}, {"measurement": "Inhibitory effect after administration of compounds of the present invention (inhibition of isoproterenol-induced tachycardia), 30 min", "setting": "β1 -receptor", "value": 63.8, "unit": "%"}, {"measurement": "Inhibitory effect after administration of compounds of the present invention (inhibition of isoproterenol-induced tachycardia), 35 min", "setting": "β1 -receptor", "value": 45.4, "unit": "%"}, {"measurement": "Inhibitory effect after administration of compounds of the present invention (inhibition of isoproterenol-induced tachycardia), 40 min", "setting": "β1 -receptor", "value": 32.7, "unit": "%"}, {"measurement": "Inhibitory effect after administration of compounds of the present invention (inhibition of isoproterenol-induced tachycardia), 50 min", "setting": "β1 -receptor", "value": 10.8, "unit": "%"}, {"measurement": "Inhibitory effect after administration of compounds of the present invention (inhibition of isoproterenol-induced tachycardia), 60 min", "setting": "β1 -receptor", "value": -3.3, "unit": "%"}, {"measurement": "Duration of action", "setting": "β1 -receptor", "value": 10, "unit": "min"}]}, {"molecule": "CC1(C)OCC(COC(=O)CCc2ccc(OC[C@@H](O)CNCCNC(=O)N3CCOCC3)c(C#N)c2)O1", "note": "(stereo partly drawn) [3 (j), (2,2-dimethyl-1,3-dioxolan-4-yl)methyl 3-[3-cyano-4-[2S-hydroxy-3-(2-morpholinocarbonylaminoethyl)aminopropoxy]phenyl]propionate 1/2 oxalate]", "values": [{"measurement": "Inhibitory effect after administration of compounds of the present invention (inhibition of isoproterenol-induced tachycardia), 10 min", "setting": "β1 -receptor", "value": 75.7, "unit": "%"}, {"measurement": "Inhibitory effect after administration of compounds of the present invention (inhibition of isoproterenol-induced tachycardia), 20 min", "setting": "β1 -receptor", "value": 69.0, "unit": "%"}, {"measurement": "Inhibitory effect after administration of compounds of the present invention (inhibition of isoproterenol-induced tachycardia), 30 min", "setting": "β1 -receptor", "value": 68.7, "unit": "%"}, {"measurement": "Inhibitory effect after administration of compounds of the present invention (inhibition of isoproterenol-induced tachycardia), 35 min", "setting": "β1 -receptor", "value": 48.9, "unit": "%"}, {"measurement": "Inhibitory effect after administration of compounds of the present invention (inhibition of isoproterenol-induced tachycardia), 40 min", "setting": "β1 -receptor", "value": 38.3, "unit": "%"}, {"measurement": "Inhibitory effect after administration of compounds of the present invention (inhibition of isoproterenol-induced tachycardia), 50 min", "setting": "β1 -receptor", "value": 19.3, "unit": "%"}, {"measurement": "Inhibitory effect after administration of compounds of the present invention (inhibition of isoproterenol-induced tachycardia), 60 min", "setting": "β1 -receptor", "value": 13.6, "unit": "%"}, {"measurement": "Duration of action", "setting": "β1 -receptor", "value": 12, "unit": "min"}]}, {"molecule": "CN1CCN(C(=O)NCCNC[C@H](O)COc2ccc(CCC(=O)OCC3COC(C)(C)O3)cc2)CC1", "note": "(stereo partly drawn) [3 (l), (2,2-dimethyl-1,3-dioxolan-4-yl)methyl 3-[4-[2S-hydroxy-3-[2-(4-methylpiperazin-1-yl)carbonylaminoethyl]aminopropoxy]phenyl]propionate 1/2 oxalate]", "values": [{"measurement": "Inhibitory effect after administration of compounds of the present invention (inhibition of isoproterenol-induced tachycardia), 10 min", "setting": "β1 -receptor", "value": 60.2, "unit": "%"}, {"measurement": "Inhibitory effect after administration of compounds of the present invention (inhibition of isoproterenol-induced tachycardia), 20 min", "setting": "β1 -receptor", "value": 58.6, "unit": "%"}, {"measurement": "Inhibitory effect after administration of compounds of the present invention (inhibition of isoproterenol-induced tachycardia), 30 min", "setting": "β1 -receptor", "value": 59.8, "unit": "%"}, {"measurement": "Inhibitory effect after administration of compounds of the present invention (inhibition of isoproterenol-induced tachycardia), 35 min", "setting": "β1 -receptor", "value": 55.6, "unit": "%"}, {"measurement": "Inhibitory effect after administration of compounds of the present invention (inhibition of isoproterenol-induced tachycardia), 40 min", "setting": "β1 -receptor", "value": 41.8, "unit": "%"}, {"measurement": "Inhibitory effect after administration of compounds of the present invention (inhibition of isoproterenol-induced tachycardia), 50 min", "setting": "β1 -receptor", "value": 19.6, "unit": "%"}, {"measurement": "Inhibitory effect after administration of compounds of the present invention (inhibition of isoproterenol-induced tachycardia), 60 min", "setting": "β1 -receptor", "value": 16.3, "unit": "%"}, {"measurement": "Duration of action", "setting": "β1 -receptor", "value": 15, "unit": "min"}]}]}
